In general, inhibition refers to the relative decrease from the control value, in per cent. As usually defined, the LD50 is the dose at which mortality reaches 50%.

Data set [1] has as its system rabbit mesenteric arteries. The experiment in a line: Inhibition of KCl-induced contraction of surface-perfused, extirpated mesenteric arteries. Format: cell-based, White bastard rabbits. The procedure:
(1) Preparation of surface-perfused, extirpated mesenteric arteries
White bastard rabbits (male, 2-3 kg) were incised along the abdominal median line. […] The strips were ligated with silk yarn at both ends, and the lower end was connected to a stationary rod, whereas the upper end was connected to a […] transducer (SB-1T, product of Nippon Koden Co., Ltd.). Thus, the strips were suspended under an initial tension of 1.5 g. The preparation was kept at 37°±1° C. by means of peristaltic pump (Harvard 1210), while a gas (95% O2 and 5% CO2) was introduced therein. The surface of the preparation was perfused with a Krebs-Henseleit solution whose composition in g/l was NaCl: 6.92, KCl: 0.35, MgSO4.7H2 O: 0.29, CaCl2 : 0.28, KH2 PO4 : 0.16, NaHCO3 : 2.1 and glucose: 2.0 at a flow rate of 10 ml/min. After the preparation was stabilized for 1 to 2 hours, it was used for the experiment. Potassium chloride as a blood vessel-contracting substance was injected into flow of the perfusion solution through a cannula provided just before the preparation so that potassium chloride can have the ultimate concentration of 20 mM. The resulting contraction reaction was recorded on a polygraph (RM-45, product of Nippon Koden Co. Ltd.) in equal scales through the tension transducer. KS-619-1 was dissolved in ethanol to a concentration of 20 mg/ml, and the solution was properly diluted with a nutrient liquor and then continuously perfused from 10 minutes before the application of the contracting substance till the end of contraction reaction.
^(a) Inhibition percentage of contraction was calculated according to […]

The nature of data set [2]: Acute toxicity (LD50) in mice. The conditions noted are these: mouse, in vivo. The procedure: The acute toxicity (LD50) of KS-619-1 in mice is more than 300 mg/kg·p.o. and more than 100 mg/kg·i.p.
A short description of data set [3]: Solubility. It counts as physicochemical.

The structures appear in SMILES notation.

On to `CC(=O)Cc1cc2c(c(O)c1C(=O)O)-c1cc3c(c(O)c1CC2)C(=O)c1c(O)cc(O)cc1C3=O` [KS-619-1], for which, in data set [1] (Oryctolagus cuniculus, KS-619-1 0.3 μg/ml (ultimate concentration), contracting substance potassium chloride 20 mM, read-out: Inhibition percentage of contraction), the inhibition at 0.3 µg/mL came out at 33%. The inhibition at 1 µg/mL in data set [1] (Oryctolagus cuniculus, KS-619-1 1.0 μg/ml (ultimate concentration), contracting substance potassium chloride 20 mM, read-out: Inhibition percentage of contraction) is 67%. The “inhibition of contraction of rabbit mesenteric arteries (in words)” value in data set [1] (potassium chloride 20 mM, 0.3 and 1.0 μg/ml) is “inhibited the contraction of rabbit mesenteric arteries, depending on the concentration”. Also, the LD50 is greater than 100 mg/kg in data set [2] (ip) and greater than 300 mg/kg in data set [2] (po). Also, the Solubility result in data set [3] (in acetic acid) is listed as “readily soluble”; in data set [3] (in chloroform and water), “sparingly soluble”; in data set [3] (in methanol, ethanol, acetone, ethyl acetate and butanol) it was “soluble”.

The values above are taken from patent US4962125A, “Novel substance KS-619-1, preparation process and pharmaceutical composition” (Kyowa Hakko Kogyo, Co., Ltd., priority 1984, dated 1990).
